According to US20110229575A1, “DEEP IMMERSION FLOTATION THERAPY FOR BURN VICTIMS” (priority 2008, published 2011):

Tests used:
Lipophilicity of the PFC = type: physicochemical
Excerpt: Circulation of the perflurocarbon liquid can be employed so that the patient floats without constraints, alleviating pain associated with usual system of treatment. As the liquid is continuously circulated, external heating or cooling of the fluid can be employed in order to maintain a comfort level for the patient. The fluid is preferably filtered to assure a biologically inert and/or sterile liquid environment for the patient. Additionally, a gas mixture containing 0 to 100% oxygen from (with adequate controls and precautions for ultra-ambient levels) is bubbled in the circulating PFC to supply oxygen to the patient's skin. PFCs are excellent transporters of oxygen and carbon dioxide; being that the PFCs are slightly lipophilic at body temperature and would help in the transport of oxygen into and removal of carbon dioxide from the skin tissue, accelerating the healing process.

[1] = Physical properties of F-tert-butylcyclohexane; type: physicochemical
Excerpt: Oxycyte™ is based on the perfluorocarbon F-tert-butylcyclohexane, a saturated alicyctic PFC (molecular formula C10F20) and can be used as a PFC composition in the methods and uses described herein. Physical properties of F-tert-butylcyclohexane are as follows: […]

SMILES: FC(F)(F)C(C(F)(F)F)(C(F)(F)F)C1(F)C(F)(F)C(F)(F)C(F)(F)C(F)(F)C1(F)F [F-tert-butylcyclohexane, perfluoro-tert-butylcyclohexane]
- Lipophilicity (Lipophilicity of the PFC; at body temperature): only slightly lipophilic
- Lipophilicity (Lipophilicity of the PFC; at room temperature): not lipophilic
- Density [1]: 1.97 g/mL
- Kinematic Viscosity [1]: 5.378 cP
- Vapor Pressure ([1]; @25° C.): 3.8 mmHg
- Vapor Pressure ([1]; @37° C.): 4.4 mmHg
